Key:
PDE4D2 = PDE4D2 (Homo sapiens, UniProt Q08499); experiment: PDE4D2 enzyme experiment (AMP-Glo); settings: read-out: PDE4D2 IC50 Binding; enzyme assay
Procedure: (§1) All compounds were dissolved in DMSO into 10 mM or 20 mM stock solutions. The compound to be tested was diluted with DMSO in a 3-fold gradient. 20 nL/well of the compound or a DMSO control was transferred to a 384-well plate by using Echo 550 instrument. The plate was sealed with a membrane and centrifuged for 1 minute. A 2× enzyme solution was prepared with an assay buffer, and 2 uL/well of the 2× enzyme solution was added, followed by equilibration at room temperature for 10 minutes. A 2× Cyclic-3′,5′-AMP substrate solution was prepared with an assay buffer, and 2 uL/well of the 2× substrate solution was added, followed by incubation at room temperature for 60 minutes. 4 μL of AMP-glo reagent was added, followed by incubation at room temperature for 60 minutes. 8 ul of an AMP detection solution was added, followed by incubation at room temperature for 60 minutes. An RLU value was read on Envision 2105 plate reader. The RLU value represents the concentration of the product AMP. Inhibition rate %=(1−(RLUpositive control−RLUcomnpound)/(RLUpositive control−RLUnegative control))*100. The IC50 value was then calculated by Graphpad 8.0 software using Y=Bottom+(Top−Bottom)/(1+10^((LogIC50−X)*HillSlope)).

PDE4B2 = PDE4B2 (Homo sapiens, UniProt Q07343); settings: read-out: PDE4B2 IC50; enzyme assay
Procedure: as §1

Flpin-293-PDE4B2 cells = Flpin-293-PDE4B2 cells (Homo sapiens, UniProt Q07343); experiment: cell-based; settings: for inhibition at 0.001 µM: read-out: Cell Inhibition % @1 nM, 1 nM, Flpin-293-PDE4B2 cells; for inhibition at 0.01 µM: read-out: Cell Inhibition % @10 nM, 10 nM, Flpin-293-PDE4B2 cells; for inhibition at 0.1 µM: read-out: Cell Inhibition % @100 nM, 100 nM, Flpin-293-PDE4B2 cells
Sequence of Flpin-293-PDE4B2 cells (Q07343 1-564 isoform Q07343-2): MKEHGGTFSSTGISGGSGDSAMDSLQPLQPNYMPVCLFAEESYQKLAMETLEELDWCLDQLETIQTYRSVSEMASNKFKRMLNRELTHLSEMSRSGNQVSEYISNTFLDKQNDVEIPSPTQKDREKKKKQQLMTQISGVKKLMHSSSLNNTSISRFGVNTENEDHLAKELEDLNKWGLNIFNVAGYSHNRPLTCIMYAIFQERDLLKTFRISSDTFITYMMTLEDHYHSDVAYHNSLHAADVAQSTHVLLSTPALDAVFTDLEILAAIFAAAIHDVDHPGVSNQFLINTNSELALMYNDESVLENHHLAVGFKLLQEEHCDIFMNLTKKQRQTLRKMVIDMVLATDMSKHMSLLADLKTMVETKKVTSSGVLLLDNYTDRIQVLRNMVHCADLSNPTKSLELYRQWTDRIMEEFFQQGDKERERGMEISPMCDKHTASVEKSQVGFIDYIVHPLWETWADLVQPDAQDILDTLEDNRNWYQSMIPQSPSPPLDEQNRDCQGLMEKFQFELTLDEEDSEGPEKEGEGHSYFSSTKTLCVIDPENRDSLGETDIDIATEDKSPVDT

Sequence of PDE4D2 (Q08499 303-809 limits assumed): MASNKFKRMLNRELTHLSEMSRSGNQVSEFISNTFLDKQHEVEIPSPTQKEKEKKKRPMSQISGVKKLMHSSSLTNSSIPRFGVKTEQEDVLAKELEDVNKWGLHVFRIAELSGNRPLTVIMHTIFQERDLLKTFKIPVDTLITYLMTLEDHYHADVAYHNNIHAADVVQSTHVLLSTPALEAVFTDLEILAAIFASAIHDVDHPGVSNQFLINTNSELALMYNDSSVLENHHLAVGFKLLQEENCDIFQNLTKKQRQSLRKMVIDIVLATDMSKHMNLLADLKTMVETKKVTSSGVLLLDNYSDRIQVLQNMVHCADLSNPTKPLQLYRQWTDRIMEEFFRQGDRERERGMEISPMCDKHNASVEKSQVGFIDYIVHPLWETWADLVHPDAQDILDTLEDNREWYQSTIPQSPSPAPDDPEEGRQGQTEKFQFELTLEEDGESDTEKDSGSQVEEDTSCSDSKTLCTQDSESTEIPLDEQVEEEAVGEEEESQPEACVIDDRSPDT
Sequence of PDE4B2 (Q07343 1-564 isoform Q07343-2, species assumed): as the sequence (Q07343 1-564 isoform Q07343-2) above

Row | Molecule | IC50 (PDE4D2) [pM] | IC50 (PDE4B2) [pM] | inhibition at 0.001 µM (Flpin-293-PDE4B2 cells) [%] | inhibition at 0.01 µM (Flpin-293-PDE4B2 cells) [%] | inhibition at 0.1 µM (Flpin-293-PDE4B2 cells) [%]
1 | NC(=O)Cc1ccc(Nc2nc(N3CCc4cc(Cl)ccc4C3)nc3c2[S+]([O-])CC3)cc1 (stereo not drawn) [Compound 127] | 424 | 164 | 9.78 | 73 | 100
2 | [O-][S+]1CCc2nc(N3CCc4cc(N5C[C@@H]6[C@@H](CO)[C@@H]6C5)ccc4C3)nc(NC3(CO)CCC3)c21 (stereo partly drawn) [Compound 174] | 231 | 197 | – | – | –
3 | C[C@H]1Cc2cc(Cl)ccc2CN1c1nc2c(c(NC3(CO)CCC3)n1)[S+]([O-])CC2 (stereo partly drawn) [Compound 122] | 2040 | 838 | 5.4 | 49.9 | 96.8
4 | [O-][S+]1CCc2nc(N3CCc4cc(N5CCOCC5)ccc4C3)nc(NC3(CO)CCC3)c21 (stereo not drawn) [Compound 144] | 697 | 440 | 7.35 | 51.4 | 98.6
5 | CC1(O)CCN(c2ccc3c(c2)CCN(c2nc4c(c(NC5(CO)CCC5)n2)[S+]([O-])CC4)C3)C1 (stereo not drawn) [Compound 175] | 603 | 299 | 6.9 | 59.4 | 98.4
6 | [O-][S+]1CCc2nc(N3CCc4cc(Cl)ccc4[C@H]3C3CC3)nc(NC3(CO)CCC3)c21 (stereo partly drawn) [Compound 125] | 1980 | 968 | 2.85 | 21.8 | 90.6
7 | C[C@@H]1CCCN1c1ccc2c(c1)CCN(c1nc3c(c(NC4(CO)CCC4)n1)[S+]([O-])CC3)C2 (stereo partly drawn) [Compound 133] | 1560 | 515 | 10.5 | 33 | 94.2
8 | [O-][S+]1CCc2nc(N3CCc4cc(N5C[C@H]6C[C@@H]5CO6)ccc4C3)nc(NC3(CO)CCC3)c21 (stereo partly drawn) [Compound 153] | 520 | 182 | 10.2 | 76.8 | 99.9
9 | C[C@H]1c2ccc(N3CCCC3)cc2CCN1c1nc2c(c(Nc3cnn(C4COC4)c3)n1)[S+]([O-])CC2 (stereo partly drawn) [Compound 208] | 766 | 220 | – | – | –
10 | O=S1(=O)CCC(Nc2nc(N3CCc4cc(N5CCCC5)ccc4C3)nc3c2[S+]([O-])CC3)CC1 (stereo not drawn) [Compound 187] | 116 | 450 | 25.3 | 93.8 | 101
11 | [O-][S+]1CCc2nc(N3CCc4cc(N5CCC[C@H]5CO)ccc4C3)nc(NC3(CO)CCC3)c21 (stereo partly drawn) [Compound 132] | 651 | 368 | 16.2 | 78.6 | 102
12 | CN1CCN(c2ccc3c(c2)CCN(c2nc4c(c(NC5(CO)CCC5)n2)[S+]([O-])CC4)C3)CC1 (stereo not drawn) [Compound 170] | 1290 | 729 | 1.97 | 26.7 | 86.9
13 | C[C@H]1c2ccc(N3CCCC3)cc2CCN1c1nc2c(c(Nc3cnn(CCO)c3)n1)[S+]([O-])CC2 (stereo partly drawn) [Compound 210] | 1200 | – | – | – | –
14 | C[C@H]1c2ccc(N3CCCC3)cc2CCN1c1nc2c(c(NC3(CO)COC3)n1)[S+]([O-])CC2 (stereo partly drawn) [Compound 200] | 119 | 117 | 14.7 | 74.4 | 99.9
15 | [O-][S+]1CCc2nc(N3CCc4cc(N5CCCC5)ccc4C3)nc(Nc3cnn(CCO)c3)c21 (stereo not drawn) [Compound 191] | 851 | 182 | 8.9 | 35.2 | 94.3
16 | [O-][S+]1CCc2nc(N3CCc4cc(N5CCC(C(F)(F)F)C5)ccc4C3)nc(NC3(CO)CCC3)c21 (stereo not drawn) [Compound 156] | 1760 | 1260 | 1.42 | 25.7 | 91.7

Row | Molecule | IC50 (PDE4D2) [pM] | IC50 (PDE4B2) [pM] | inhibition at 0.001 µM (Flpin-293-PDE4B2 cells) [%] | inhibition at 0.01 µM (Flpin-293-PDE4B2 cells) [%] | inhibition at 0.1 µM (Flpin-293-PDE4B2 cells) [%]
17 | C[C@@H]1Cc2cc(Cl)ccc2CN1c1nc2c(c(NC3(CO)CCC3)n1)[S+]([O-])CC2 (stereo partly drawn) [Compound 121] | 48200 | 13500 | 0.4 | 10 | 29.4
18 | CN(C)c1ccc2c(c1)CCN(c1nc3c(c(NC4(CO)CCC4)n1)[S+]([O-])CC3)C2 (stereo not drawn) [Compound 126] | 1640 | 951 | 19.8 | 77.4 | 100
19 | C[C@H]1c2ccc(N3CCCC3)cc2CCN1c1nc2c(c(N[C@@H]3CC[C@H]3O)n1)[S+]([O-])CC2 (stereo partly drawn) [Compound 201] | 596 | 194 | 7.33 | 72.3 | 99.9
20 | Cn1cnc(Nc2nc(N3CCc4cc(N5CCCC5)ccc4C3)nc3c2[S+]([O-])CC3)c1 (stereo not drawn) [Compound 197] | 23800 | 13300 | – | – | –
21 | [O-][S+]1CCc2nc(N3CCc4cc(N5CC[C@@H](CO)C5)ccc4C3)nc(NC3(CO)CCC3)c21 (stereo partly drawn) [Compound 131] | 333 | 147 | 16.6 | 76 | 98.7
22 | C[C@H]1CN(c2nc3c(c(NC4(CO)CCC4)n2)[S+]([O-])CC3)Cc2ccc(Cl)cc21 (stereo partly drawn) [Compound 120] | – | 980 | 4.1 | 7.4 | 23.1
23 | [O-][S+]1CCc2nc(N3CCc4cc(N5CCCC5)ccc4C3)nc(NC3CCOCC3)c21 (stereo not drawn) [Compound 189] | 145 | 66 | 24.4 | 93.5 | 101
24 | CN1CC2CN(c3ccc4c(c3)CCN(c3nc5c(c(NC6(CO)CCC6)n3)[S+]([O-])CC5)C4)CC2C1 (stereo not drawn) [Compound 179] | 460 | 502 | 9.95 | 51.5 | 92.2
25 | Cn1cc(CNc2nc(N3CCc4cc(Cl)ccc4C3)nc3c2[S+]([O-])CC3)cn1 (stereo not drawn) [Compound 142] | 2270 | 837 | 6.79 | 34.8 | 94.4
26 | CN1C[C@@H](Nc2nc(N3CCc4cc(N5CCCC5)ccc4C3)nc3c2[S+]([O-])CC3)CCC1=O (stereo partly drawn) [Compound 185] | 26.3 | 25.1 | 75.3 | 100 | 101
27 | CO[C@H]1CCN(c2ccc3c(c2)CCN(c2nc4c(c(NC5(CO)CCC5)n2)[S+]([O-])CC4)C3)C1 (stereo partly drawn) [Compound 151] | 655 | 298 | 7.66 | 56.5 | 99.1
28 | [O-][S+]1CCc2nc(N3CCc4cc(N5CC6C(C5)C6(F)F)ccc4C3)nc(NC3(CO)CCC3)c21 (stereo not drawn) [Compound 161] | 824 | 670 | 3.1 | 37.3 | 96.3
29 | C[C@H]1c2ccc(N3CCCC3)cc2CCN1c1nc2c(c(NC3(CO)CCOCC3)n1)[S+]([O-])CC2 (stereo partly drawn) [Compound 212] | 1250 | 945 | 3.24 | 34.6 | 97.5
30 | (R)-2-(7-fluoro-6-(pyrrolidin-1-yl)-3,4-dihydroisoquinolin-2(1H)-yl)-4-((1-(hydroxymethyl)cyclobutyl)amino)-6,7-dihydrothieno[3,2-d]pyrimidine 5-oxide [Compound 181] | 876 | – | – | – | –
31 | CN1C[C@H]2C[C@@H]1CN2c1ccc2c(c1)CCN(c1nc3c(c(NC4(CO)CCC4)n1)[S+]([O-])CC3)C2 (stereo partly drawn) [Compound 155] | – | 692 | 12 | 46.8 | 76.1
32 | [O-][S+]1CCc2nc(N3CCc4nc(N5CCCC5)sc4C3)nc(NC3(CO)CCC3)c21 (stereo not drawn) [Compound 195] | 1120 | 956 | – | – | –
